# In PubChem BioAssay (NCI):
#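 48-hour exposure; five concentrations; linearly interpolated endpoints. Here, GI50 denotes the concentration required for 50% inhibition of growth. TGI: total growth inhibition.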
# Assays:
# Test in all cases: NCI anticancer screen, dose series, 48 h
# SF-295 CNS = tested on: SF-295 CNS
# U251 CNS = tested on: U251 CNS
# SK-MEL-5 melanoma = tested on: SK-MEL-5 melanoma
# EKVX NSCLC = tested on: EKVX NSCLC
# OVCAR-4 ovarian = tested on: OVCAR-4 ovarian
# MOLT-4 leukemia = tested on: MOLT-4 leukemia
# NCI-H226 lung = tested on: NCI-H226 lung
# HT29 colon = tested on: HT29 colon
# SW-620 colon = tested on: SW-620 colon
# T-47D breast = tested on: T-47D breast
# SF-268 CNS = tested on: SF-268 CNS
# CAKI-1 renal = tested on: CAKI-1 renal
# HCT-116 colon = tested on: HCT-116 colon
# RPMI-8226 leukemia = tested on: RPMI-8226 leukemia
# MDA-MB-435 = tested on: MDA-MB-435
# HS 578T breast = tested on: HS 578T breast
# SNB-19 CNS = tested on: SNB-19 CNS
# NCI/ADR-RES ovarian = tested on: NCI/ADR-RES ovarian
# HOP-62 NSCLC = tested on: HOP-62 NSCLC
# DU-145 prostate = tested on: DU-145 prostate
# NCI-H23 lung = tested on: NCI-H23 lung
# NCI-H522 lung = tested on: NCI-H522 lung
# SF-539 CNS = tested on: SF-539 CNS
# MALME-3M melanoma = tested on: MALME-3M melanoma
# HL-60(TB) leukemia = tested on: HL-60(TB) leukemia
# SK-OV-3 ovarian = tested on: SK-OV-3 ovarian
# SK-MEL-2 melanoma = tested on: SK-MEL-2 melanoma
# CCRF-CEM leukemia = tested on: CCRF-CEM leukemia
# HOP-92 NSCLC = tested on: HOP-92 NSCLC
smiles,measurement,setting,value
Cc1cnc(NC2CCOCC2)nc1-n1cnc(C(=O)N[C@H](CN)c2cc(F)cc(Cl)c2)c1,GI50,SF-295 CNS,2800 nM
same,TGI,SF-295 CNS,17.3 µM
same,GI50,U251 CNS,1540 nM
same,TGI,U251 CNS,22.9 µM
same,GI50,SK-MEL-5 melanoma,388 nM
same,TGI,SK-MEL-5 melanoma,12.9 µM
same,GI50,EKVX NSCLC,427 nM
same,TGI,EKVX NSCLC,20.2 µM
same,GI50,OVCAR-4 ovarian,506 nM
same,TGI,OVCAR-4 ovarian,53.5 µM
same,GI50,MOLT-4 leukemia,1590 nM
same,TGI,MOLT-4 leukemia,9.79 µM
same,GI50,NCI-H226 lung,1360 nM
same,TGI,NCI-H226 lung,10.9 µM
same,GI50,HT29 colon,12.8 nM
same,TGI,HT29 colon,> 35.4 µM
same,GI50,SW-620 colon,38.3 nM
same,TGI,SW-620 colon,14.3 µM
same,GI50,T-47D breast,13.6 µM
same,TGI,T-47D breast,46.6 µM
same,GI50,SF-268 CNS,1860 nM
same,TGI,SF-268 CNS,23.2 µM
same,GI50,CAKI-1 renal,237 nM
same,TGI,CAKI-1 renal,5.34 µM
same,GI50,HCT-116 colon,17.7 nM
same,TGI,HCT-116 colon,12.4 µM
same,GI50,RPMI-8226 leukemia,7.45 µM
same,TGI,RPMI-8226 leukemia,30.4 µM
same,GI50,MDA-MB-435,63.8 nM
same,TGI,MDA-MB-435,16.4 µM
same,GI50,HS 578T breast,871 nM
same,TGI,HS 578T breast,15.8 µM
same,GI50,SNB-19 CNS,13.9 µM
same,TGI,SNB-19 CNS,> 57.8 µM
same,GI50,NCI/ADR-RES ovarian,19.8 µM
same,TGI,NCI/ADR-RES ovarian,> 91.9 µM
same,GI50,HOP-62 NSCLC,154 nM
same,TGI,HOP-62 NSCLC,20.9 µM
same,GI50,DU-145 prostate,2340 nM
same,TGI,DU-145 prostate,82.8 µM
same,GI50,NCI-H23 lung,20.1 nM
same,TGI,NCI-H23 lung,16.5 µM
same,GI50,NCI-H522 lung,8.23 µM
same,TGI,NCI-H522 lung,30.5 µM
same,GI50,SF-539 CNS,2930 nM
same,TGI,SF-539 CNS,17.4 µM
same,GI50,MALME-3M melanoma,< 10 nM
same,TGI,MALME-3M melanoma,15.7 nM
same,GI50,HL-60(TB) leukemia,19.6 nM
same,TGI,HL-60(TB) leukemia,1830 nM
same,GI50,SK-OV-3 ovarian,523 nM
same,TGI,SK-OV-3 ovarian,8.17 µM
same,GI50,SK-MEL-2 melanoma,18.6 nM
same,TGI,SK-MEL-2 melanoma,531 nM
same,GI50,CCRF-CEM leukemia,2400 nM
same,TGI,CCRF-CEM leukemia,24.5 µM
same,GI50,HOP-92 NSCLC,23 nM
